In patent publication US11286268B1, “EIF4E-inhibiting compounds and methods” (EFFECTOR THERAPEUTICS, INC., priority 2019, dated 2022) one finds IC50 data, which are given here for 47 molecules.

Where two headings read alike, the source gives them in different places. Some results are limits rather than exact numbers.

The assay has as its target recombinant eIF4E (Homo sapiens (Human), UniProt P06730). Kind of assay: Fluorescence polarization competition assay for eIF4E binding potency. In outline: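 Protein and fluorescent cap-analog probe (EDA-m7GDP-ATTO-550) were mixed first for 5 min, after which serially diluted compound was added to final 75 nM eIF4E, 20 nM probe, 1% DMSO. Reactions equilibrated 30 min at room temperature before polarization was measured.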

Where [1] appears, read: fluorescence polarization competition, 75 nM recombinant eIF4E, 20 nM EDA-m7GDP-ATTO-550, IC50 class, read-out: elF4E FP.
The mark [2] stands for this setting: inhibition of eIF4E/EDA-m7GDP-ATTO-550 binding by 50%, Table 4B calculated values, read-out: IC50.
Setting [3] is: inhibition of eIF4E/EDA-m7GDP-ATTO-550 binding, calculated IC50 values, Table 4B, read-out: IC50.

recombinant eIF4E, sequence (P06730 whole entry): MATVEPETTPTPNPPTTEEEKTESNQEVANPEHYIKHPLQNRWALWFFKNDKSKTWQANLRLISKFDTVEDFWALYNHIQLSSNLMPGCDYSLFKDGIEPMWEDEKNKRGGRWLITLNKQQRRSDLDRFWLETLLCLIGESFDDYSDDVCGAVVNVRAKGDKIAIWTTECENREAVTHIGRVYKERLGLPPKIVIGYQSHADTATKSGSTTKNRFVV

Consider `Cc1cc(-c2cc(Cl)ccc2OCCn2c(C)nc3c(C)nc(-c4cc(F)ccc4F)c(C#N)c3c2=O)c2scc(C(=O)O)c2n1` [compound 998], for which the IC50 is, setting by setting: under setting [1], below 50 nM; under setting [2], 45.1 nM.

For the molecule `Cc1nc2cnc(N(C)C3CCN(CC(F)(F)F)CC3)c(C#N)c2c(=O)n1CC#Cc1ccc(Cl)cc1-c1ccnc2c(C(=O)NS(=O)(=O)C3CC3)csc12` [compound 1547], the IC50 under setting [3] is 15.2 nM. Regarding `Cc1cc(-c2cc(Cl)ccc2OCCn2c(C)nc3cnc(-c4cc(F)cnc4C)c(C#N)c3c2=O)c2scc(C(=O)O)c2n1` [compound 1051], the IC50 by setting is: under setting [1], below 50 nM; under setting [2], 5.02 nM. Consider `Cc1cc(-c2cc(Cl)ccc2OCCn2c(C)nc3cc(C(F)(F)F)c(N4CCN(CCO)CC4)c(C#N)c3c2=O)c2sc(C)c(C(=O)O)c2n1` [compound 1393], for which, under setting [3], the IC50 is 13.2 nM. The same measure, in the same setting: the value for `Cc1nc2cnc(N(C)C3CCN(C4(C(F)(F)F)CC4)CC3)c(C#N)c2c(=O)n1CC#Cc1ccc(Cl)cc1-c1ccnc2c(C(=O)O)csc12` [compound 1530] was 33.5 nM. Regarding `CCc1cc(-c2cc(Cl)ccc2OCCn2c(C)nc3cc(CN(C)C)c(OC(F)F)c(C#N)c3c2=O)c2scc(C(=O)O)c2n1` [compound 896], the IC50 under setting [2] was 1.57 nM. As to `Cc1nc2c(F)c(Cl)c(C(F)F)c(C#N)c2c(=O)n1CCOc1ccc(Cl)cc1-c1ccnc2c(C(=O)O)csc12` [compound 498], the IC50 is, setting by setting: under setting [1], below 50 nM; under setting [2], 24.2 nM.

With `Cc1nc2cc(Cl)c(OC(F)(F)F)c(C#N)c2c(=O)n1CCOc1ccc(Cl)cc1-c1ccnc2c(C(=O)O)csc12` [compound 550], the IC50 runs as follows: under setting [1], 50 to 1000 nM; under setting [2], 87.8 nM. Regarding `Cc1nc2cnc(N3CCN(C4CC4)C4(CC4)C3)c(C#N)c2c(=O)n1CCOc1ccc(Cl)cc1-c1ccnc2c(C(=O)O)csc12` [compound 1646], the IC50 under setting [3] is 26.3 nM.

On to `Cc1cc(-c2cc(Cl)ccc2OCCn2c(C)nc3cnc(N4C[C@H]5C[C@@H](C4)N5C)c(C#N)c3c2=O)c2sc(C)c(C(=O)O)c2n1` [compound 1202], for which the IC50 was below 50 nM under setting [1] and 19.7 nM under setting [3]. With `N#Cc1cc2c(=O)n(CCOc3ccc(Cl)cc3-c3nc(C(=O)O)cs3)cnc2cn1` [compound 81], the IC50 is, setting by setting: under setting [1], above 1000 nM; under setting [2], 4220 nM.

`Cc1cc(-c2cc(Cl)ccc2OCCn2c(C)nc3cnc(N4CC[C@@H](O)C4)c(C#N)c3c2=O)c2scc(C(=O)O)c2n1` [compound 883]: the IC50 runs as follows: under setting [1], below 50 nM; under setting [2], 12.8 nM. With `N#Cc1cc2c(=O)n(CCOc3ccc(Cl)cc3-c3cc(C(=O)O)cc(F)c3F)cnc2cn1` [compound 89], the IC50 under setting [1] is above 1000 nM and the IC50 under setting [2] is above 3000 nM.

Turning to `O=C(O)c1cccc(-c2cc(Cl)ccc2OCCn2cnc3c(F)cccc3c2=O)c1` [compound 76], the IC50 by setting is: under setting [1], above 1000 nM; under setting [2], 2300 nM. Turning to `Cc1cc(-c2cc(Cl)ccc2OCCn2c(C)nc3cc(C(F)(F)F)c(-c4ccccn4)c(C#N)c3c2=O)c2sc(C)c(C(=O)O)c2n1` [compound 421], the IC50 under setting [1] was below 50 nM. In the case of `Cc1cc(-c2cc(Cl)ccc2OCCn2c(C)nc3cc4c(c(C#N)c3c2=O)CCC4N(C)C)c2scc(C(=O)O)c2n1` (stereo not shown) [compound 613], the IC50 is below 50 nM under setting [1] and 7.89 nM under setting [2]. In the case of `Cc1cc(-c2cc(Cl)ccc2OCCn2c(C)nc3cn(C)c(=O)c(C#N)c3c2=O)c2scc(C(=O)O)c2n1` [compound 1005], the IC50 by setting is: under setting [1], below 50 nM; under setting [2], 33.4 nM. On to `CCN(c1ncc2nc(C)n(CC#Cc3ccc(Cl)cc3-c3ccnc4c(C(=O)O)csc34)c(=O)c2c1C#N)C1CCN(CC(F)(F)C(F)F)CC1` [compound 1191], for which the IC50 was below 50 nM under setting [1] and 12.8 nM under setting [3]. As to `Cc1cc(-c2cc(Cl)ccc2OCCn2c(C)nc3cc(F)c(C)c(C#N)c3c2=O)c2scc(C(=O)O)c2n1` [compound 368], the IC50 under setting [1] was below 50 nM and the IC50 under setting [2] was 41.1 nM.

With `Cc1cc(-c2cc(Cl)ccc2OCCn2c(C)nc3ccc(CCN(C)C)c(C#N)c3c2=O)c2scc(C(=O)NS(C)(=O)=O)c2n1` [compound 1138], the IC50 reads like this: under setting [1], below 50 nM; under setting [2], 23.7 nM. Regarding `Cc1nc2cc(C(F)(F)F)c(CCN(C)C)c(C#N)c2c(=O)n1CCOc1ccc(Cl)cc1-c1ccnc2ccsc12` [compound 1255], the IC50 under setting [3] was 150 nM. `N#Cc1cc(C(F)(F)F)cc2nc(C#N)n(CCOc3ccc(Cl)cc3-c3cccc(C(=O)O)c3)c(=O)c12` [compound 185]: the IC50 is, setting by setting: under setting [1], 50 to 1000 nM; under setting [2], 94.9 nM. Consider `Cc1cc(-c2cc(Cl)ccc2OCCn2c(C)nc3cc(OC(F)F)cc(C#N)c3c2=O)c2scc(C(=O)O)c2n1` [compound 579], for which the IC50 by setting is: under setting [1], below 50 nM; under setting [2], 30.2 nM. In the case of `O=C(O)c1cccc(-c2cc(Cl)ccc2OCCn2c(C(F)F)nc3cccc(Br)c3c2=O)c1` [compound 2009], the IC50 under setting [3] was 2150 nM. `Cc1nc2cnc(N(C)C3CCN(CC(F)(F)F)CC3)c(C#N)c2c(=O)n1CC#Cc1ccc(Cl)cc1-c1ccnc2c(C(N)=O)csc12` [compound 1594]: under setting [3], the IC50 was 442 nM. In the case of `Cc1nc2cc(C(F)(F)F)cc(C#N)c2c(=O)n1CCOc1ccc(Cl)cc1-c1snc2c(C(=O)O)csc12` [compound 265], the IC50 is, setting by setting: under setting [1], 50 to 1000 nM; under setting [2], 77.1 nM. Turning to `N#Cc1cc2c(=O)n(CCOc3ccc(Cl)cc3-c3ccc(OC(F)F)c(C(=O)O)c3)cnc2cn1` [compound 111], the IC50 under setting [1] lay within 50 to 1000 nM and the IC50 under setting [2] is 434 nM. On to `Cc1nc2cc(C(F)(F)F)cc(C#N)c2c(=O)n1CCCc1ccc(Cl)cc1-c1cccc(C(=O)O)c1` [compound 146], for which the IC50 by setting is: under setting [1], 50 to 1000 nM; under setting [2], 259 nM.

As for `Cc1nc2cnc(N3CCC[C@@H]4CN(CC(F)F)CC[C@@H]43)c(C#N)c2c(=O)n1CC#Cc1ccc(Cl)cc1-c1ccnc2c(C(=O)O)csc12` [compound 1544], under setting [3], the IC50 is 13.1 nM. `Cc1nc2cnc(N(C)C3CCN(CC(F)(F)F)CC3)c(C#N)c2c(=O)n1CCOc1ccc(Cl)cc1-c1ccnc2c(C(=O)O)csc12` [compound 865]: the IC50 runs as follows: under setting [1], below 50 nM; under setting [2], 28.4 nM.

For `Cc1nc2cnc(N3CCN(C4CC(F)(F)C4)CC3)c(C#N)c2c(=O)n1CCOc1ccc(Cl)cc1-c1ccnc2c(C(=O)O)csc12` [compound 1307], under setting [3], the IC50 is 54.2 nM.

With `Cc1nc2cc(F)cc(C#N)c2c(=O)n1CCOc1ccc(Cl)cc1-c1cccc(C(=O)O)c1` [compound 167], the IC50 runs as follows: under setting [1], 50 to 1000 nM; under setting [2], 101 nM. Taken in the same sequence, the figures for `Cc1nc2cc(C(F)(F)F)cc(C#N)c2c(=O)n1CCOc1ccc(Cl)cc1-c1cc(C(=O)O)nc2ccsc12` [compound 201] were 50 to 1000 nM and 354 nM. Turning to `Cc1nc2cnc(N(C)C3CCN(CC(C)(C)C(F)(F)F)CC3)c(C#N)c2c(=O)n1CC#Cc1ccc(Cl)cc1-c1ccnc2c(C(=O)O)csc12` [compound 1586], the IC50 under setting [3] was 31.8 nM. The same measure, in the same setting: for `Cc1nc2cnc(N(C)C3CCCN(CC(F)F)C3)c(C#N)c2c(=O)n1CC#Cc1ccc(Cl)cc1-c1ccnc2c(C(=O)O)csc12` (stereo not shown) [compound 1540] the value was 19.5 nM. Regarding `Cc1nc2cc(C(F)(F)F)c(CN(C)C)c(F)c2c(=O)n1CCOc1ccc(Cl)cc1-c1ccnc2c(C(=O)O)csc12` [compound 621], the IC50 is 50 to 1000 nM under setting [1] and 60 nM under setting [2].

Consider `Cc1nc2cc(C(F)(F)F)c(N3CCN(C)CC3)c(C#N)c2c(=O)n1CCOc1ccc(Cl)cc1-c1ccnc(C(=O)O)c1` [compound 1221], for which the IC50 under setting [1] was below 50 nM and the IC50 under setting [3] was 30 nM. For `Cc1cc(-c2cc(Cl)ccc2OCCn2c(C)nc3cc(C(F)(F)F)c(-c4ccccn4)cc3c2=O)c2scc(C(=O)O)c2n1` [compound 426], the IC50 by setting is: under setting [1], below 50 nM; under setting [2], 41.2 nM. `Cc1cc(-c2cc(Cl)ccc2C#CCn2c(C)nc3cc(C(F)(F)F)c(N4CCN(CCO)CC4)c(C#N)c3c2=O)c2scc(C(=O)O)c2n1` [compound 856]: the IC50 by setting is: under setting [1], below 50 nM; under setting [2], 13.7 nM. Consider `Cc1nc2cnc(N(C)C3CCN(C4CC(F)(F)C4)CC3)c(C#N)c2c(=O)n1CC#Cc1ccc(Cl)cc1-c1ccnc2c(C(=O)NS(C)(=O)=O)csc12` [compound 1108], for which the IC50 under setting [1] is below 50 nM and the IC50 under setting [2] is 29.1 nM.

Regarding `Cc1sc2c(-c3cc(Cl)ccc3OCCn3c(C)nc4cc(C(F)(F)F)c(CN(C)C)c(C#N)c4c3=O)ccnc2c1C(=O)O` [compound 556], the IC50 was below 50 nM under setting [1] and 22.7 nM under setting [2].

Consider `Cc1nc2cnc(N(C)[C@H]3[C@@H]4C[C@H]3CN(CC(C)(F)F)C4)c(C#N)c2c(=O)n1CC#Cc1ccc(Cl)cc1-c1ccnc2c(C(=O)O)csc12` [compound 1577], for which, under setting [3], the IC50 was 13.3 nM. For the molecule `Cc1cc(-c2cc(Cl)ccc2OCCn2c(C)nc3c(C)nc(-c4ccc(Cl)cc4)c(C#N)c3c2=O)c2scc(C(=O)O)c2n1` [compound 480], the IC50 runs as follows: under setting [1], below 50 nM; under setting [2], 7.39 nM. For `CONC(=O)c1csc2c(-c3cc(Cl)ccc3OCCn3c(C)nc4c(F)cc(C(F)F)c(C#N)c4c3=O)ccnc12` [compound 303], under setting [1], the IC50 lay within 50 to 1000 nM. Turning to `Cc1nc2cnc(N3CCN(CCC(F)(F)F)CC3)c(C#N)c2c(=O)n1CC#Cc1ccc(Cl)cc1-c1ccnc2c(C(=O)O)csc12` [compound 1160], the IC50 was below 50 nM under setting [1] and 17.2 nM under setting [2].

As for `Cc1nc2c(ccc3cnncc32)c(=O)n1CCOc1ccc(Cl)cc1-c1ccnc2c(C(=O)O)csc12` [compound 659], the IC50 under setting [1] is below 50 nM and the IC50 under setting [2] was 26.4 nM. For `Cc1c(CCOc2ccc(Cl)cc2-c2ccnc3c(C(=O)O)csc23)c(=O)c2c(C#N)c(Cl)c(C(F)(F)F)cc2n1C` [compound 361] the same measures were 50 to 1000 nM and 68.4 nM.
